Data from ChEMBL document CHEMBL1157519, “Cytotoxic acylated triterpene saponins from the husks of Xanthoceras sorbifolia” (J Nat Prod, 2008).

system: OVCAR-3; assay: Growth inhibition of human OVCAR-3 cells by MTT assay; type: functional, cell-based

Row | SMILES | IC50 [µM]
1 | C/C=C(/C)C(=O)O[C@H]1[C@H](OC(=O)/C(C)=C\C)[C@]2(CO)[C@H](O)C[C@]3(C)C(=CC[C@@H]4[C@@]5(C)CC[C@H](O[C@@H]6O[C@H](C(=O)O)[C@@H](O)[C@H](O[C@@H]7O[C@@H](CO)[C@H](O)[C@H]7O)[C@H]6O[C@@H]6O[C@H](CO)[C@H](O)[C@H](O)[C@H]6O)[C@@H](C)[C@@H]5CC[C@]43C)[C@@H]2CC1(C)C | 4.8
2 | C/C=C(/C)C(=O)O[C@H]1[C@H](OC(=O)C(C)C)[C@]2(CO)[C@H](O)[C@H](O)[C@]3(C)C(=CC[C@@H]4[C@@]5(C)CC[C@H](O[C@@H]6O[C@H](C(=O)O)[C@@H](O)[C@H](O[C@@H]7O[C@@H](CO)[C@H](O)[C@H]7O)[C@H]6O[C@@H]6O[C@H](CO)[C@H](O)[C@H](O)[C@H]6O)[C@@H](C)[C@@H]5CC[C@]43C)[C@@H]2CC1(C)C | 4.2
3 | C/C=C(/C)C(=O)O[C@H]1[C@H](O)[C@]2(COC(=O)C(C)CC)[C@H](O)[C@H](O)[C@]3(C)C(=CC[C@@H]4[C@@]5(C)CC[C@H](O[C@@H]6O[C@H](C(=O)O)[C@@H](O)[C@H](O[C@@H]7O[C@@H](CO)[C@H](O)[C@H]7O)[C@H]6O[C@@H]6O[C@H](CO)[C@@H](O)[C@H](O)[C@H]6O)[C@@H](C)[C@@H]5CC[C@]43C)[C@@H]2CC1(C)C (some centres undefined) | 13.1
4 | C/C=C(/C)C(=O)O[C@H]1[C@H](OC(=O)/C(C)=C\C)[C@]2(CO)[C@H](O)[C@H](O)[C@]3(C)C(=CC[C@@H]4[C@@]5(C)CC[C@H](O[C@@H]6O[C@H](C(=O)O)[C@@H](O)[C@H](O[C@@H]7O[C@@H](CO)[C@H](O)[C@H]7O)[C@H]6O[C@@H]6O[C@H](CO)[C@H](O)[C@H](O)[C@H]6O)[C@@H](C)[C@@H]5CC[C@]43C)[C@@H]2CC1(C)C | 4
